Results reported in patent US20160199481A1 (priority 2013, published 2016).
“Also recorded” adds a separate entry of the source.

Legend:
WT HA/WT NA virus [1] = assay type: cell-based, influenza A
WT HA/WT NA virus [2] = assay type: cell-based, influenza A; remark: listed apart in the source

oseltamivir
neutralization of infectivity (percent infectivity remaining) (WT HA/WT NA virus [1]): resistant to neutralization by oseltamivir; also recorded: uninhibited at all concentrations tested | inhibition of agglutination by oseltamivir (WT HA/WT NA virus [2]): uninhibited at all oseltamivir concentrations tested
